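All cell lines were grown in 96-well plates and treated with compound for 48 hours. GI50 marks 50% less growth.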 Active and inactive are the calls of the source. No stated cut-off is given here; in the data, active = GI50 up to about 1.1 µM and inactive = higher.
How the values were obtained:
Assay in all cases: growth of human tumour cells (NCI), 48 h
[1] = test system: SR
[2] = test system: HT-29
[3] = test system: UACC-257
[4] = test system: UO-31
[5] = test system: NCI-H23
[6] = test system: NCI-H522
[7] = test system: BT-549
[8] = test system: K562
[9] = test system: CCRF-CEM
[10] = test system: DU-145
[11] = test system: RXF 393
[12] = test system: COLO 205
[13] = test system: OVCAR-8
[14] = test system: HCT-15
[15] = test system: EKVX
[16] = test system: A549
[17] = test system: KM12
[18] = test system: 786-0
[19] = test system: HCT-116
[20] = test system: CAKI-1
[21] = test system: SN12C
[22] = test system: MCF7
[23] = test system: SK-MEL-5
[24] = test system: ACHN
[25] = test system: SF-539
[26] = test system: HCC 2998
[27] = test system: A498
[28] = test system: Hs-578T
[29] = test system: NCI-H226
[30] = test system: SNB-75
[31] = test system: HOP-92
[32] = test system: MDA-MB-231
[33] = test system: MDA-N
[34] = test system: MDA-MB-435
[35] = test system: NCI-H460
[36] = test system: SW-620
[37] = test system: OVCAR-3
[38] = test system: SF-268
[39] = test system: SF-295
[40] = test system: RPMI-8226
[41] = test system: LOX IMVI
[42] = test system: IGROV-1
[43] = test system: MOLT-4
[44] = test system: OVCAR-5
[45] = test system: NCI/ADR-RES
[46] = test system: TK-10
[47] = test system: PC-3
[48] = test system: UACC-62
[49] = test system: OVCAR-4
[50] = test system: HOP-62
[51] = test system: T47D
[52] = test system: U-251
[53] = test system: SK-MEL-2
[54] = test system: M14
[55] = test system: Malme-3M
[56] = test system: HL-60
[57] = test system: SK-OV-3
[58] = test system: SNB-19
[59] = test system: SK-MEL-28

## Cc1ccnc2nc3[nH]c4ccccc4c3cc12
[1]
  GI50: 71.1 µM (inactive)
[2]
  GI50: > 100 µM (inactive)
[3]
  GI50: 89.5 µM (inactive)
[4]
  GI50: > 100 µM (inactive)
[5]
  GI50: > 100 µM (inactive)
[6]
  GI50: > 100 µM (inactive)
[7]
  GI50: 48 µM (inactive)
[8]
  GI50: > 100 µM (inactive)
[9]
  GI50: 75 µM (inactive)
[10]
  GI50: > 100 µM (inactive)
[11]
  GI50: > 100 µM (inactive)
[12]
  GI50: > 100 µM (inactive)
[13]
  GI50: 66.8 µM (inactive)
[14]
  GI50: > 100 µM
[15]
  GI50: > 100 µM (inactive)
[16]
  GI50: > 100 µM (inactive)
[17]
  GI50: > 100 µM (inactive)
[18]
  GI50: 24.4 µM (inactive)
[19]
  GI50: > 100 µM (inactive)
[20]
  GI50: > 100 µM (inactive)
[21]
  GI50: > 100 µM (inactive)
[22]
  GI50: > 100 µM (inactive)
[23]
  GI50: > 100 µM (inactive)
[24]
  GI50: > 100 µM (inactive)
[25]
  GI50: > 100 µM (inactive)
[26]
  GI50: > 100 µM (inactive)
[27]
  GI50: > 100 µM (inactive)
[28]
  GI50: > 100 µM (inactive)
[29]
  GI50: > 100 µM (inactive)
[30]
  GI50: 22 µM (inactive)
[31]
  GI50: > 100 µM (inactive)
[32]
  GI50: > 100 µM (inactive)
[33]
  GI50: > 100 µM (inactive)
[34]
  GI50: > 100 µM (inactive)
[35]
  GI50: > 100 µM (inactive)
[36]
  GI50: > 100 µM (inactive)
[37]
  GI50: > 100 µM (inactive)
[38]
  GI50: > 100 µM (inactive)
[39]
  GI50: > 100 µM (inactive)
[40]
  GI50: > 100 µM (inactive)
[41]
  GI50: > 100 µM (inactive)
[42]
  GI50: > 100 µM (inactive)
[43]
  GI50: > 100 µM (inactive)
[44]
  GI50: > 100 µM (inactive)
[45]
  GI50: > 100 µM (inactive)
[46]
  GI50: > 100 µM (inactive)
[47]
  GI50: > 100 µM (inactive)
[48]
  GI50: > 100 µM (inactive)
[49]
  GI50: > 100 µM (inactive)
[50]
  GI50: 75.7 µM (inactive)
[51]
  GI50: > 100 µM (inactive)
[52]
  GI50: 39.1 µM (inactive)
[53]
  GI50: > 100 µM (inactive)
[54]
  GI50: > 100 µM (inactive)

## C=CCN(c1cc(OC)c2[nH]cc(C)c2c1[N+](=O)[O-])S(C)(=O)=O
[55]
  GI50: > 100 µM (inactive)
[1]
  GI50: > 100 µM (inactive)
[3]
  GI50: > 100 µM (inactive)
[4]
  GI50: > 100 µM (inactive)
[5]
  GI50: > 100 µM (inactive)
[6]
  GI50: > 100 µM (inactive)
[7]
  GI50: > 100 µM (inactive)
[56]
  GI50: > 100 µM (inactive)
[8]
  GI50: > 100 µM (inactive)
[9]
  GI50: > 100 µM (inactive)
[57]
  GI50: > 100 µM (inactive)
[10]
  GI50: > 100 µM (inactive)
[11]
  GI50: > 100 µM (inactive)
[12]
  GI50: > 100 µM (inactive)
[13]
  GI50: > 100 µM (inactive)
[14]
  GI50: > 100 µM
[15]
  GI50: > 100 µM (inactive)
[16]
  GI50: > 100 µM (inactive)
[17]
  GI50: > 100 µM (inactive)
[18]
  GI50: > 100 µM (inactive)
[19]
  GI50: > 100 µM (inactive)
[20]
  GI50: 2.55 µM (inactive)
[21]
  GI50: > 100 µM (inactive)
[22]
  GI50: > 100 µM (inactive)
[23]
  GI50: > 100 µM (inactive)
[24]
  GI50: > 100 µM (inactive)
[25]
  GI50: > 100 µM (inactive)
[26]
  GI50: > 100 µM (inactive)
[27]
  GI50: > 100 µM (inactive)
[28]
  GI50: > 100 µM (inactive)
[29]
  GI50: > 100 µM (inactive)
[30]
  GI50: > 100 µM (inactive)
[32]
  GI50: > 100 µM (inactive)
[33]
  GI50: > 100 µM (inactive)
[34]
  GI50: > 100 µM (inactive)
[35]
  GI50: > 100 µM (inactive)
[36]
  GI50: > 100 µM (inactive)
[37]
  GI50: > 100 µM (inactive)
[38]
  GI50: > 100 µM (inactive)
[39]
  GI50: > 100 µM (inactive)
[58]
  GI50: > 100 µM (inactive)
[40]
  GI50: > 100 µM (inactive)
[41]
  GI50: > 100 µM (inactive)
[59]
  GI50: > 100 µM (inactive)
[42]
  GI50: > 100 µM (inactive)
[43]
  GI50: > 100 µM (inactive)
[44]
  GI50: > 100 µM (inactive)
[45]
  GI50: > 100 µM (inactive)
[46]
  GI50: > 100 µM (inactive)
[47]
  GI50: > 100 µM (inactive)
[48]
  GI50: > 100 µM (inactive)
[49]
  GI50: > 100 µM (inactive)
[50]
  GI50: > 100 µM (inactive)
[51]
  GI50: > 100 µM (inactive)
[52]
  GI50: > 100 µM (inactive)
[53]
  GI50: > 100 µM (inactive)
[54]
  GI50: > 100 µM (inactive)
